Assay results: patent publication US12097276B2, “Cosmetic composition comprising theasinensin A” (AMOREPACIFIC CORPORATION, priority 2018, dated 2024)

Legend:
[1] = system: matrix metalloproteinase-1 (MMP-1) expression in UVB-irradiated HS68 cells; assay: Inhibition of MMP-1 expression in UVB-irradiated HS68 cells (ELISA); type: cell-based, human; conditions: 48 hours
Protocol: For investigation of the effect of reducing skin wrinkles and enhancing skin elasticity of theasinensin A, the effect of inhibiting the expression of matrix metalloproteinase-1 (MMP-1), which is a collagenase in the human body, was tested as follows.
First, a cell culture was prepared by treating UVB-irradiated HS68 cells (ATCC, Cat No CRL-1635) with the theasinensin A prepared in Preparation Example at 2.5, 5 or 10 ppm. After culturing HS68 cells (ATCC, Cat No CRL-1635) in a separate medium and adding phosphate-buffered saline (PBS) thereto after removing the medium, UVB was irradiated with an intensity of 30 mJ/cm^2. The UVB-irradiated cells were treated with the previously prepared theasinensin A-treated culture and cultured for 48 hours in an incubator. After recovering the culture, MMP-1 expression level was measured using a MMP-1 ELISA kit (Amersham, RPN2610).

[2] = DPPH radical-scavenging assay (antioxidant effect); conditions: 100 μM DPPH in ethanol, 37° C., 30 minutes
Protocol: For investigation of the antioxidant effect of theasinensin A, the effect of inhibiting 2,2-diphenyl-1-picrylhydrazyl (DPPH) was tested as follows.
The 2,2-diphenyl-1-picrylhydrazyl (DPPH, Sigma D9132) radical dissolved in an organic solvent has the maximum absorbance at 515 nm. Since an antioxidant substance scavenges the DPPH radical and turns it colorless, antioxidant effect can be compared by measuring the DPPH radical-scavenging activity of theasinensin A through DPPH assay.
First, theasinensin A (TSA) was dissolved in ethanol such that the concentration of the theasinensin A (TSA) was 0.3125, 0.625, 1.25, 2.5, 5 and 10 ppm, respectively. The solutions of different concentrations were added to a 96-well plate, 10 μL each. Then, after adding 190 μL of 100 μM DPPH completely dissolved in ethanol to each solution and storing at 37° C. for 30 minutes, absorbance was measured at 515 nm.
DPPH assay was conducted in the same manner for 0.625, 1.25, 2.5, 5 and 10 ppm of vitamin C (Vit.C) as positive control groups and a negative control group (N.T.) not treated with theasinensin A (TSA) or vitamin C (Vit.C).

[3] = system: melanin production in B16 cells; assay: Inhibition of intra/extracellular melanin production in α-MSH-treated B16 cells; type: cell-based; conditions: 72 hours; for extracellular melanin content compared to the control group treated only with α-MSH / intracellular melanin content compared to the control group treated only with α-MSH: B16 cells, 200 nM α-MSH, 2.5, 5 or 10 ppm
Protocol: For investigation of the skin-brightening effect of theasinensin A, the effect of inhibiting intra/extracellular melanin production was tested as follows.
First, after treating B16 cells (ATCC, Cat No CRL-6475) with 200 nM of α-melanocyte-stimulating hormone (α-MSH) and with theasinensin A as an example of the present disclosure or EGCG as a comparative example at nontoxic concentrations of 10 ppm or lower (2.5, 5 or 10 ppm), the intracellular and extracellular melanin contents 72 hours after the treatment were measured by correcting to the protein contents, and represented as % of melanin contents with respect to a non-theasinensin A-treated control group.
The intracellular melanin content is shown in FIG. 5 (TSA) and FIG. 6 (EGCG), and the extracellular melanin content is shown in FIG. 7 (TSA) and FIG. 8 (EGCG).

[4] = Stability of the active ingredient in solubilized formulations (remaining titer by HPLC); type: physicochemical; conditions: stored at 25° C.
Protocol: The following experiment was conducted to investigate the stability of theasinensin A as an active ingredient.
First, a solubilized formulation comprising the theasinensin A prepared in Preparation Example (Example 1) and a solubilized formulation comprising EGCG (Comparative Example 1) were prepared with the following compositions.
Then, the titer of theasinensin A or EGCG remaining in the formulations of Example 1 and Comparative Example 1 was analyzed by high-performance liquid chromatography (HPLC) with 1-week intervals. Specifically, after storing 10 mL of each composition of Example 1 and Comparative Example 1 at 25° C. and sonicating the same with 1-week intervals after diluting 10 fold with methanol followed by filtering, the content was analyzed by HPLC.

[5] = about 4 weeks later, solubilized formulation with 0.02 wt % active (Example 1 / Comparative Example 1)

| SMILES | inhibition of MMP-1 expression ([1]; UVB-irradiated (30 mJ/cm^2) HS68 cells, 2.5, 5 or 10 ppm, concentration-dependent) [%] | concentration at which MMP-1 expression level was inhibited significantly ([1]; UVB-irradiated HS68 cells) [ppm] | concentration at which DPPH activity was inhibited significantly [2] [ppm] | IC50 of DPPH activity inhibition ([2]; absorbance at 515 nm) [ppm] | extracellular melanin content compared to the control group treated only with α-MSH [3] | intracellular melanin content compared to the control group treated only with α-MSH [3] | inhibition at 10 ppm ([3]; Mus musculus, 10 ppm, B16 cells with 200 nM α-MSH) [%] | amount of active ingredient remaining in the solubilized formulation (of total amount used) [4, 5] | amount of active ingredient remaining in the solubilized formulation (of total amount used) ([4]; 1 week later, solubilized formulation with 0.02 wt % active (Comparative Example 1)) |
| --- | --- | --- | --- | --- | --- | --- | --- | --- | --- |
| O=C(O[C@@H]1Cc2c(O)cc(O)cc2O[C@@H]1c1cc(O)c(O)c(O)c1-c1c([C@H]2Oc3cc(O)cc(O)c3C[C@H]2OC(=O)c2cc(O)c(O)c(O)c2)cc(O)c(O)c1O)c1cc(O)c(O)c(O)c1 [theasinensin A] | ≥ 50 | ≥ 2.5 | ≥ 0.3 | 5.9 | decreased melanin content | decreased melanin content | ~30 | ≥ 87 wt % | – |
| O=C(O[C@@H]1Cc2c(O)cc(O)cc2O[C@@H]1c1cc(O)c(O)c(O)c1)c1cc(O)c(O)c(O)c1 [EGCG, epigallocatechin gallate, reference compound] | – | – | – | – | increased | increased | – | less than 40 wt % | less than 80 wt % |
